Experimental data reported in patent publication US7138361B2, “Herbicidal heterocycles” (E. I. du Pont de Nemours and Company, priority 2000, dated 2006).

Columns and labels:
Assay type in all cases: in vivo
Sunflower [1] = assay: Test C preemergence; conditions: Rate 500 g/ha, visual evaluation after 12 to 14 days
[2] = test system: cocklebur (Xanthium strumarium); assay: Test B postemergence
In short: (§1)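 Greenhouse test: chemicals are formulated in a surfactant-containing non-phytotoxic solvent and applied either preemergence to planted seeds or postemergence to plants 2 to 18 cm tall. Response is rated visually versus controls after 13 to 15 days, 0 meaning no effect and 100 complete control.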

[3] = test system: lambsquarters (Chenopodium album); assay: Test B postemergence; conditions: Rate 125 g/ha, scale 0 to 100, 0 no effect, 100 complete control
In short: as §1

[4] = test system: crabgrass (Digitaria sanguinalis); assay: Test B postemergence; conditions: Rate 125 g/ha, scale 0 to 100, 0 no effect, 100 complete control
In short: as §1

wild oat (Avena fatua) = assay: Test B postemergence; conditions: Rate 125 g/ha, scale 0 to 100, 0 no effect, 100 complete control
In short: as §1

[5] = test system: cocklebur (Xanthium strumarium); assay: Test C preemergence
In short: (§2)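 Formulation: non-phytotoxic solvent mix incl. surfactant. Pre: applied right after planting. Post: 1–4-leaf seedlings. Read: visual 0–100, day 12–14, greenhouse.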

[6] = test system: woolly cupgrass (Eriochloa villosa); assay: Test C preemergence
In short: as §2

[7] = test system: velvetleaf (Abutilon theophrasti); assay: Test C preemergence
In short: as §2

Sunflower [8] = assay: Test C preemergence; conditions: Rate 125 g/ha; scale 0 to 100, 0 no effect, 100 complete control
[9] = test system: common ragweed (Ambrosia elatior); assay: Test C preemergence
In short: as §2

corn (Zea mays) = assay: Test C preemergence
In short: as §2

[10] = test system: lambsquarters (Chenopodium album); assay: Test C preemergence
In short: as §2

soybean (Glycine max) = assay: Test C preemergence; conditions: preemergence; Rate 250 g/ha; scale 0 to 100, 0 no effect, 100 complete control
In short: as §2

Nightshade = assay: Test C preemergence
[11] = test system: Surinam grass (Brachiaria decumbens); assay: Test C preemergence
In short: as §2

[12] = test system: bermudagrass (Cynodon dactylon); assay: Test C preemergence
In short: as §2

kochia (Kochia scoparia) = assay: Test C preemergence
In short: as §2

[13] = test system: pigweed (Amaranthus retroflexus); assay: Test C preemergence
In short: as §2

[14] = test system: giant foxtail (Setaria faberii); assay: Test C preemergence
In short: as §2

[15] = test system: johnsongrass (Sorghum halepense); assay: Test C preemergence
In short: as §2

[16] = Rate 125 g/ha, scale 0 to 100, 0 no effect, 100 complete control
[17] = preemergence, Rate 62 g/ha, scale 0 to 100
[18] = preemergence, Rate 500 g/ha, visual evaluation after 12 to 14 days
[19] = preemergence, Rate 250 g/ha, scale 0 to 100, 0 no effect, 100 complete control

CCOc1cccc(N2CCC(n3ccc(C(C)C)n3)C2=O)c1 (centres unmarked) [Compound 128]
80: Plant response rating, Pigweed [13, 19]
0: Plant response rating, Cocklebur [2, 16] | Plant response rating, Lambsquarters [3] | Plant response rating, Crabgrass [4] | Plant response rating, Wild Oat (wild oat (Avena fatua)) | Plant response rating, Cocklebur [5, 17] | Plant response rating, Corn (corn (Zea mays); [17])
30: Plant response rating, Velvetleaf [7, 19]
20: Plant response rating, Velvetleaf [7, 16] | Plant response rating, Corn (corn (Zea mays); [16]) | Plant response rating, Nightshade (Nightshade; Rate 62 g/ha, scale 0 to 100) | Plant response rating, Foxtail, Giant [14, 17]
10: Plant response rating, Cocklebur [5, 16] | Plant response rating, Velvetleaf [7, 17]
100: Plant response rating (0 to 100), Sunflower (Sunflower [1]) | Plant response rating, Cupgrass, Woolly [6, 16] | Plant response rating, Cupgrass, Woolly [6, 17] | Plant response rating (0 to 100), Cupgrass, Woolly [6, 18] | Plant response rating, Cupgrass, Woolly [6, 19] | Plant response rating, Sunflower (Sunflower [8]) | Plant response rating, Ragweed, Common [9, 16] | Plant response rating, Ragweed, Common [9, 17] | Plant response rating (0 to 100), Ragweed, Common [9, 18] | Plant response rating, Ragweed, Common [9, 19] | Plant response rating, Lambsquarters [10, 16] | Plant response rating, Lambsquarters [10, 17] | Plant response rating (0 to 100), Lambsquarters [10, 18] | Plant response rating, Lambsquarters [10, 19] | Plant response rating, Surinam grass [11, 16] | Plant response rating (0 to 100), Surinam grass [11, 18] | Plant response rating, Surinam grass [11, 19] | Plant response rating, Bermudagrass [12, 16] | Plant response rating, Bermudagrass [12, 17] | Plant response rating (0 to 100 where 0 is no effect and 100 is complete control), Bermudagrass [12, 18] | Plant response rating, Bermudagrass [12, 19] | Plant response rating, Kochia (kochia (Kochia scoparia); [16]) | Plant response rating, Kochia (kochia (Kochia scoparia); [17]) | Plant response rating (0 to 100), Kochia (kochia (Kochia scoparia); [18]) | Plant response rating, Kochia (kochia (Kochia scoparia); [19]) | Plant response rating (0 to 100), Pigweed [13, 18] | Plant response rating (0 to 100), Foxtail, Giant [14, 18] | Plant response rating (0 to 100), Johnsongrass [15, 18] | Plant response rating, Johnsongrass [15, 19]
50: Plant response rating, Cocklebur ([2]; Rate 500 g/ha, scale 0 to 100, 0 is no effect, 100 is complete control, 13 to 15 days) | Plant response rating (0 to 100), Velvetleaf [7, 18]
70: Plant response rating (0 to 100), Cocklebur [5, 18] | Plant response rating, Pigweed [13, 16] | Plant response rating, Pigweed [13, 17]
60: Plant response rating (0 to 100), Corn (corn (Zea mays); [18]) | Plant response rating, Soybean (soybean (Glycine max)) | Plant response rating, Johnsongrass [15, 17]
90: Plant response rating, Nightshade (Nightshade; Rate 250 g/ha, scale 0 to 100, 0 no effect, 100 complete control) | Plant response rating, Surinam grass [11, 17] | Plant response rating, Foxtail, Giant [14, 16] | Plant response rating, Foxtail, Giant [14, 19] | Plant response rating, Johnsongrass [15, 16]
40: Plant response rating, Cocklebur [5, 19] | Plant response rating, Corn (corn (Zea mays); [19]) | Plant response rating, Nightshade (Nightshade; [16])
